Our source for the IC50 values is patent US11649237B2, “Substituted imidazo[1,5-a]pyrazines for IRE1 inhibition” (Optikira LLC, priority 2017, dated 2023).

By IC50 is commonly meant the concentration at which inhibition is half-maximal.

The subject of assay [1] is XBP-1 splicing in ARPE-19 cells or apoptosis of INS-1 cells expressing mIRE-1. In words: Cellular assay (XBP1 splicing assay or apoptosis assay). It counts as cell-based. The settings on record: data are for the XBP1 splicing assay or the apoptosis assay (not specified per compound). The procedure: ARPE-19 cells stably expressing XBP-1 (a.a. 1-376) with nano-luciferase gene sequence linked so it is in frame when XBP-1 is spliced, were cultured in F12 media, 10% FBS, 0.044% sodium bicarbonate, 150 μg/ml hygromycin B and seeded for assays at 5,000 cells in 384 well plates in culture media without hygromycin B and incubated at 37° C./5% CO2. […] After further incubation of 30 minutes thapsigargin was added (final concentration 150 nM) and then another 4 hour incubation. A NanoLuc luciferase assay (Promega) was used according to the manufacturer's instructions to detect the luciferase and luminescence measured on a luminometer (EnVision, PerkinElmer).
Doxycycline (final concentration 100 nM) was added and plates incubated for a further 72 hours. To determine the proportion of apoptotic cells Hoechst 33342 (final concentration 10 μg/mL) was added, then after 30 minutes incubation cells imaged and analyzed on an InCell high content imager.

For another assay, the target named is IRE1α RNase (Homo sapiens (Human), UniProt O75460). Kind of assay: Biochemical assay, inhibition of RNase activity of IRE1α.
IRE1α RNase, sequence (O75460 468-977): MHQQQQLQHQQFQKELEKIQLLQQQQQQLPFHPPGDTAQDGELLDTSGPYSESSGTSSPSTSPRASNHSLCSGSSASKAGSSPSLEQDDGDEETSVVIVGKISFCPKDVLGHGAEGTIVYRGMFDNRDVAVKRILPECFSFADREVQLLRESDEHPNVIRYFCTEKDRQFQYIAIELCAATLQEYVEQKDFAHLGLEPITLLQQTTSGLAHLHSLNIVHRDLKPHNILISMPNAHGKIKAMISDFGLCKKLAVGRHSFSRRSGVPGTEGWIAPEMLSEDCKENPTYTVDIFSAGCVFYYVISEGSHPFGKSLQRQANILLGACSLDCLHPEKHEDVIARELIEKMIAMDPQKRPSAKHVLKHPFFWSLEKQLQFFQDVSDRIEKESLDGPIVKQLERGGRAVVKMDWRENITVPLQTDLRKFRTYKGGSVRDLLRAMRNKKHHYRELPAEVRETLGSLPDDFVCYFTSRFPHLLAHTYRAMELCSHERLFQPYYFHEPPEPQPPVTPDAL

Procedure for IRE1α RNase: Test compounds were prepared on the day of assay and dispensed using D300 digital dispenser as a 10-point ½ log dilution series in duplicate, normalized to a final DMSO concentration of 4%. Test compounds were pre-incubated for 30 min at room temperature with IRE1α kinase (E31-11G from Signal Chem) in 2.5 μL of assay buffer.

For the molecule `CC(C)c1nc(-c2ccc(NS(=O)(=O)c3ccccc3F)c(F)c2)c2c(N)ncc(C3=CCC(NCCF)CC3)n12` (stereo not drawn) [Example 229, N-(4-(8-amino-5-(4-((2-fluoroethyl)amino)cyclohex-1-en-1-yl)-3-isopropylimidazo[1,5-a]pyrazin-1-yl)-2-fluorophenyl)-2-fluorobenzenesulfonamide], the IC50 (in assay [1]; on IRE1α RNase) was 0.025 µM throughout.

As for `CC(C)c1nc(-c2ccc(NS(=O)(=O)c3ccccc3Cl)c(F)c2)c2c(N)ncc(C3=CCC(NC4COC4)CC3)n12` (stereo not drawn) [Example 232, N-(4-(8-amino-3-isopropyl-5-(4-(oxetan-3-ylamino)cyclohex-1-en-1-yl)imidazo[1,5-a]pyrazin-1-yl)-2-fluorophenyl)-2-chlorobenzenesulfonamide], the IC50 in assay [1] stood at 0.2 µM; against IRE1α RNase, 0.06 µM.

Regarding `CC(C)c1nc(-c2cc(F)c(NS(=O)(=O)c3ccccc3Cl)cc2F)c2c(N)ncc(C3=CCC(NCCF)CC3)n12` (stereo not drawn) [Example 228, N-(4-(8-amino-5-(4-((2-fluoroethyl)amino)cyclohex-1-en-1-yl)-3-isopropylimidazo[1,5-a]pyrazin-1-yl)-2,5-difluorophenyl)-2-chlorobenzenesulfonamide], the half-maximal inhibitory concentration (IC50) is 0.01 µM in assay [1] and 0.006 µM against IRE1α RNase.

In assay [1], `CC(C)c1nc(-c2ccc(NS(=O)(=O)c3ccccc3Cl)c(F)c2)c2c(N)ncc(C3=CCC(N(C)CCF)CC3)n12` (stereo not drawn) [Example 230, N-(4-(8-amino-5-(4-((2-fluoroethyl)(methyl)amino)cyclohex-1-en-1-yl)-3-isopropylimidazo[1,5-a]pyrazin-1-yl)-2-fluorophenyl)-2-chlorobenzenesulfonamide] came in with an IC50 of 0.019 µM.

As for `CC(C)c1nc(-c2ccc(NS(=O)(=O)c3ccccc3Cl)c(F)c2)c2c(N)ncc(C3=CCC(NCC(F)F)CC3)n12` (stereo not drawn) [Example 226, N-(4-(8-amino-5-(4-((2,2-difluoroethyl)amino)cyclohex-1-en-1-yl)-3-isopropylimidazo[1,5-a]pyrazin-1-yl)-2-fluorophenyl)-2-chlorobenzenesulfonamide], the IC50 in assay [1] was 0.33 µM; against IRE1α RNase, 0.213 µM.
